{"source": "patent US20030109503A1", "about": "“Pharmaceutical formulations comprising clavulanic acid alone or in combination with other beta-lactam antibiotics” (SmithKline Beecham p.l.c., priority 1995, published 2003)", "key": {"B. fragilis": {"tested_on": "B. fragilis", "experiment": "MIC in agar (Wilkins-Chalgren), serial dilution, alone or with constant clavulanic acid", "format": "cell-based, Bacteroides fragilis", "experimental": "(§1) Determinations of the minimum inhibitory concentration (MIC) were performed in agar using serial dilutions of the test compounds alone or in the presence of constant concentrations of clavulanic acid (2 or 4 μg/ml). The agar used was Mueller Hinton (BBL) supplemented with 5% lysed horse blood in the case of H. influenzae and M. catarrhalis, except for B. fragilis where Wilkins-Chalgren agar (Oxoid) was used. A multipoint inoculator was used to drop 1 μl of undiluted culture of S. aureus, 10-fold dilutions of B. fragilis, H. influenzae and M. catarrhalis and 100-fold dilutions of E. coli and K. pneumoniae onto the surface of the agar, to give an inoculum of approximately 10^4 to 10^5 cfu/spot."}, "[1]": {"tested_on": "plasmid mediated β-lactamase producing strains of E. coli", "experiment": "MIC in agar, serial dilution, alone or with constant clavulanic acid", "format": "cell-based, Escherichia coli", "experimental": "as §1"}, "[2]": {"tested_on": "β-lactamase producing strains of H. influenzae", "experiment": "MIC in agar, serial dilution, alone or with constant clavulanic acid", "format": "cell-based", "experimental": "as §1"}, "[3]": {"tested_on": "β-lactamase producing strains of S. aureus", "experiment": "MIC in agar, serial dilution, alone or with constant clavulanic acid", "format": "cell-based", "experimental": "as §1"}, "[4]": {"tested_on": "β-lactamase producing strains of M. catarrhalis", "experiment": "MIC in agar, serial dilution, alone or with constant clavulanic acid", "format": "cell-based, Moraxella catarrhalis", "experimental": "as §1"}, "[5]": {"tested_on": "plasmid mediated β-lactamase producing strains of K. pneumoniae", "experiment": "MIC in agar, serial dilution, alone or with constant clavulanic acid", "format": "cell-based, Klebsiella pneumoniae", "experimental": "as §1"}, "[6]": {"conditions": "clavulanic acid at 2 or 4 μg/ml"}, "[7]": {"conditions": "Gmean MIC values reduced considerably"}}, "note": "Read-outs that look alike come from different tables or passages of the source."}
{"molecule": "N[C@@H](C(=O)N[C@@H]1C(=O)N2C(C(=O)O)=C(Cl)CS[C@H]12)c1ccccc1", "note": "[cefaclor]", "values": [{"measurement": "MIC range", "setting": "B. fragilis; B.fragilis (19 strains), CA2/CA4 = constant 2 or 4 μg/ml clavulanic acid", "value": "64 to 512", "unit": "µg/mL"}, {"measurement": "MIC90", "setting": "B. fragilis; Bacteroides fragilis, B.fragilis (19 strains), CA2/CA4 = constant 2 or 4 μg/ml clavulanic acid", "value": 128, "unit": "µg/mL"}, {"measurement": "MIC", "setting": "B. fragilis; Bacteroides fragilis, B.fragilis (19 strains), CA2/CA4 = constant 2 or 4 μg/ml clavulanic acid, read-out: Gmean (geometric mean MIC)", "value": 151, "unit": "µg/mL"}, {"measurement": "MIC", "setting": "B. fragilis; Bacteroides fragilis, B.fragilis (19 strains), CA2/CA4 = constant 2 or 4 μg/ml clavulanic acid, read-out: MIC75", "value": 4, "unit": "µg/mL"}, {"measurement": "MIC range", "setting": "[1]; E.coli R+ (11 strains), CA2/CA4 = constant 2 or 4 μg/ml clavulanic acid", "value": "1 to 32", "unit": "µg/mL"}, {"measurement": "MIC90", "setting": "[1]; Escherichia coli", "value": 32, "unit": "µg/mL"}, {"measurement": "MIC", "setting": "[1]; Escherichia coli, read-out: Gmean (geometric mean MIC)", "value": 4.32, "unit": "µg/mL"}, {"measurement": "MIC", "setting": "[1]; Escherichia coli, read-out: MIC75", "value": 4, "unit": "µg/mL"}, {"measurement": "MIC range", "setting": "[2]; H.influenzae (15 strains), CA2/CA4 = constant 2 or 4 μg/ml clavulanic acid", "value": "2 to 16", "unit": "µg/mL"}, {"measurement": "MIC90", "setting": "[2]; Haemophilus influenzae, H.influenzae (15 strains), CA2/CA4 = constant 2 or 4 μg/ml clavulanic acid", "value": 16, "unit": "µg/mL"}, {"measurement": "MIC", "setting": "[2]; Haemophilus influenzae, H.influenzae (15 strains), CA2/CA4 = constant 2 or 4 μg/ml clavulanic acid, read-out: Gmean (geometric mean MIC)", "value": 7.64, "unit": "µg/mL"}, {"measurement": "MIC", "setting": "[2]; Haemophilus influenzae, H.influenzae (15 strains), CA2/CA4 = constant 2 or 4 μg/ml clavulanic acid, read-out: MIC75", "value": 16, "unit": "µg/mL"}, {"measurement": "MIC range", "setting": "[3]; S.aureus P+ (10 strains), CA2/CA4 = constant 2 or 4 μg/ml clavulanic acid", "value": "1 to 256", "unit": "µg/mL"}, {"measurement": "MIC90", "setting": "[3]; Staphylococcus aureus, S.aureus P+ (10 strains), CA2/CA4 = constant 2 or 4 μg/ml clavulanic acid", "value": 64, "unit": "µg/mL"}, {"measurement": "MIC", "setting": "[3]; Staphylococcus aureus, S.aureus P+ (10 strains), CA2/CA4 = constant 2 or 4 μg/ml clavulanic acid, read-out: Gmean (geometric mean MIC)", "value": 12.4, "unit": "µg/mL"}, {"measurement": "MIC", "setting": "[3]; Staphylococcus aureus, S.aureus P+ (10 strains), CA2/CA4 = constant 2 or 4 μg/ml clavulanic acid, read-out: MIC75", "value": 32, "unit": "µg/mL"}, {"measurement": "MIC", "setting": "[3]; Staphylococcus aureus, in the presence of 2 μg/ml clavulanic acid, read-out: geometric mean (Gmean) MIC of cefaclor", "value": 1.13, "unit": "µg/mL"}, {"measurement": "MIC", "setting": "[3]; Staphylococcus aureus, in the presence of 4 μg/ml clavulanic acid, read-out: geometric mean (Gmean) MIC of cefaclor", "value": 0.73, "unit": "µg/mL"}, {"measurement": "MIC range", "setting": "[4]; M.catarrhalis (14 strains), CA2/CA4 = constant 2 or 4 μg/ml clavulanic acid", "value": "1 to 8", "unit": "µg/mL"}, {"measurement": "MIC90", "setting": "[4]; Moraxella catarrhalis, M.catarrhalis (14 strains), CA2/CA4 = constant 2 or 4 μg/ml clavulanic acid", "value": 8, "unit": "µg/mL"}, {"measurement": "MIC", "setting": "[4]; Moraxella catarrhalis, M.catarrhalis (14 strains), CA2/CA4 = constant 2 or 4 μg/ml clavulanic acid, read-out: Gmean (geometric mean MIC)", "value": 4.88, "unit": "µg/mL"}, {"measurement": "MIC", "setting": "[4]; Moraxella catarrhalis, M.catarrhalis (14 strains), CA2/CA4 = constant 2 or 4 μg/ml clavulanic acid, read-out: MIC75", "value": 8, "unit": "µg/mL"}, {"measurement": "MIC90", "setting": "[5]; Klebsiella pneumoniae", "value": 256, "unit": "µg/mL"}, {"measurement": "MIC", "setting": "[5]; Klebsiella pneumoniae, read-out: Gmean (geometric mean MIC)", "value": 17.7, "unit": "µg/mL"}, {"measurement": "MIC", "setting": "[5]; Klebsiella pneumoniae, read-out: MIC75", "value": 256, "unit": "µg/mL"}]}
{"molecule": "O=C(O)[C@H]1/C(=C/CO)O[C@@H]2CC(=O)N21", "note": "[clavulanic acid]", "values": [{"measurement": "effect of clavulanic acid on the activity of cefaclor", "setting": "B. fragilis; [6]", "value": "improved the activity of cefaclor"}, {"measurement": "effect of clavulanic acid on the activity of cefaclor", "setting": "[1]; [7]", "value": "improved"}, {"measurement": "effect of clavulanic acid on the activity of cefaclor", "setting": "[2]; [6]", "value": "improved the activity of cefaclor"}, {"measurement": "effect of clavulanic acid on the activity of cefaclor", "setting": "[3]; 2 and 4 μg/ml clavulanic acid", "value": "markedly improved the activity of cefaclor"}, {"measurement": "effect of clavulanic acid on the activity of cefaclor", "setting": "[4]; [6]", "value": "improved the activity of cefaclor"}, {"measurement": "effect of clavulanic acid on the activity of cefaclor", "setting": "[5]; [7]", "value": "improved"}]}
